In general, DC50 refers to the concentration at which degradation of the target reaches its halfway point. The term Dmax denotes the greatest extent of degradation seen.

SMILES strings stand for the structures. Like-named read-outs stand apart in the source and are kept apart here.

The values that follow come from US20260092061A1, “COMPOUNDS FOR TARGETED PROTEIN DEGRADATION” (Amphista Therapeutics Limited, priority 2022, published 2026).

Common to all, as to assay type: cell-based
In test [1] the target is T1, BRD9 (Homo sapiens, UniProt Q9H8M2).
T1 sequence (Q9H8M2 1-597): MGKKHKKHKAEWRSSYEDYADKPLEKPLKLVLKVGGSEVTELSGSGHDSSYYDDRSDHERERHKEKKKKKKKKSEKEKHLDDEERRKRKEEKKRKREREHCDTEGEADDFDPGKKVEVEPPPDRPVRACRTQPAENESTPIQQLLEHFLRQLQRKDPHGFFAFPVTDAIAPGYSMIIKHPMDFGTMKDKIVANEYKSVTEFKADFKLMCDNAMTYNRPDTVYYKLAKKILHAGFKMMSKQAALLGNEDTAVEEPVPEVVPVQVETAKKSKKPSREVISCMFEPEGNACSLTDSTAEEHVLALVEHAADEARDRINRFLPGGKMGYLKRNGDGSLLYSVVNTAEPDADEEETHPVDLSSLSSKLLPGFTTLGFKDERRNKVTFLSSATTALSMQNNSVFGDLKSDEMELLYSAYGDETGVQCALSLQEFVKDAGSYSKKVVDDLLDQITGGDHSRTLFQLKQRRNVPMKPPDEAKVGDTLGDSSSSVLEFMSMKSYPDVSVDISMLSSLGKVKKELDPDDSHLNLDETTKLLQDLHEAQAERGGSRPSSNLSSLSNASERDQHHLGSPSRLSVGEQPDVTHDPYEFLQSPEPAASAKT
The test can be described thus: BRD9 degradation, HiBiT-BRD9 KI HEK293 (LgBiT) cells, NanoGlo Lytic Endpoint assay (Assay Protocol 1). The note with it: Table 3; assay 1; 5 h of treatment.

The target of test [2] is T1, BRD9. The test is described as above. The note with it: for Dmax at 1 µM / Dmax: HEK293. In outline:
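HiBiT-tagged BRD9 knock-in HEK293 (LgBiT) cells exposed to compounds for 6 h at 37 °C, 5% CO2. Residual BRD9 measured by HiBiT lytic luminescence. % BRD9 remaining normalised to DMSO-treated cells (high) and no-cell wells (low).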

For a further test, the target named is T2, BRD4 (Homo sapiens, UniProt O60885).
T2 construct: HiBiT-BRD4 HEK293 CRISPR CPM (Promega CS302312); host or cells: HEK293, CRISPR-edited (HiBiT at the BRD4 locus)
The test can be described thus: BRD4 degradation, HiBiT-BRD4 HEK293 CRISPR CPM cells, NanoGlo Lytic Endpoint assay (Assay Protocol 1). As to conditions: Table 3, assay 1; for Dmax: HEK293, 1 μM compound at 5 h of treatment; for DC50: 5 h of treatment.

A further test has as its target T3, BRD7 (Homo sapiens, UniProt Q9NPI1).
T3 construct: HiBiT-BRD7 KI HEK293 (LgBiT) Cells (Promega CS3023410); host or cells: HEK293 (LgBiT), HiBiT knock-in at the BRD7 locus
T3 sequence (Q9NPI1 1-651): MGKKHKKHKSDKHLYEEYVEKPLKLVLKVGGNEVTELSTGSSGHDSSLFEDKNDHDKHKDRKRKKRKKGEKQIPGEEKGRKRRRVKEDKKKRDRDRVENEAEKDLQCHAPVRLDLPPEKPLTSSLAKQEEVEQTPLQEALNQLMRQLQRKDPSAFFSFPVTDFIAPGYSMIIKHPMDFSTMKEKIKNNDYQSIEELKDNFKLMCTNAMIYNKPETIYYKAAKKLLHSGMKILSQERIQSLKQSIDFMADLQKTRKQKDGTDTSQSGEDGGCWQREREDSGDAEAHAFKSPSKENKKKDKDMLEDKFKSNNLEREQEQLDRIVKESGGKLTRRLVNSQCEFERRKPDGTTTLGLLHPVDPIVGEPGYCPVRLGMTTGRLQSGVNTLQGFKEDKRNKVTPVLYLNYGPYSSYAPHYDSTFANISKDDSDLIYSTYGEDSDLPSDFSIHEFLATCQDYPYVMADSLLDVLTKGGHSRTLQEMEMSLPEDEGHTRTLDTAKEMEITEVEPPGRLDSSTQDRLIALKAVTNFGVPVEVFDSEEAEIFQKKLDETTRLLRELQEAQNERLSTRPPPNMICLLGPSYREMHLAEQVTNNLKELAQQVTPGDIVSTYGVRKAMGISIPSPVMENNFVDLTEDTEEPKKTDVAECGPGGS
The test can be described thus: BRD7 degradation, HiBiT-BRD7 KI HEK293 (LgBiT) cells, NanoGlo Lytic Endpoint assay (Assay Protocol 1). As to conditions: HEK293; Table 3; assay 1; 1 μM compound at 5 h of treatment. As to the method: HiBiT-BRD9 KI HEK293 (LgBiT) Cells (Promega CS3023412) were seeded at 8000 cells per well (38 μL) in sterile white bottom 384 well plates (Invitrogen 164610 or Greiner 781080) and incubated overnight at 37° C. with 5% CO2. The next day, compounds were prepared at 1000× final concentration in DMSO and diluted 1:100 in media (DMEM PAN Biotech P04-03550+10% FBS ATCC 302025). […] The lytic buffer was equilibrated to room temperature for 10-15 min before lytic reagent was prepared by adding substrate (1:50) and LgBit protein (1:100) in lytic buffer. 40 μL lytic reagent mix was added to each well of the cel plate and plates were centrifuged briefly at ˜50g. Plates were incubated with shaking (350 RPM) for 12-24 min before reading using the LUM plus module of a BMG Pherastar FSX. Data was analysed using Dotmatics software and % BRD9 remaining was calculated by normalisation to average data from high and low control wells (DMSO treated cels and no cells respectively).
BRD7 degradation was determined in line with the procedure as outlined above for BRD9, with the exception that HiBiT-BRD7 KI HEK293 (LgBiT) Cells (Promega CS3023410) were seeded at 8000 cells per well (CPW) (36 uL) in sterile white bottom 384 well plates (Invitrogen 164610 or Greiner 781080) and incubated overnight at 37° C. with 5% CO2.
On the technique in general: With HiBiT, luminescence reflects the tagged protein that the partner subunit can reach.

For test [3], the target named is T1, BRD9. Description: Degradation of BRD9 (IF), immunofluorescence in MV4-11 cells, 24 hours (Assay Protocol 2). On the set-up: A suspension of MV4-11 cells (ATCC CRL-9591) was prepared; host or cells: MV4-11. The note with it: BRD9 degradation. An outline of the steps:
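MV4-11 cells treated with compound 24 h at 37° C., then fixed, permeabilised and immunostained for BRD9 (anti-BRD9 E4Q3F, Alexa 647 secondary, Hoechst counterstain). High-content imaging quantified nuclear BRD9 signal; % BRD9 remaining normalised to DMSO and 100 nM CFT-8634 controls.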

Where [4] appears, read: Table 2, BRD9 degradation, Assay Protocol 1, 1 μM compound at 6 h of treatment, read-out: Assay 1 Dmax.
[5] abbreviates: Table 3, assay 1, 1 μM compound at 5 h of treatment, read-out: BRD9 Dmax (%).
Where [6] appears, read: Table 2, BRD9 degradation, Assay Protocol 1, 6 h of treatment, read-out: Assay 1 DC50.

As to `COc1cc(-c2cn(C)c(=O)c(C)c2C)cc(OC)c1CN1CCN(Cc2cccc3c2CCN(C(=O)/C(C#N)=C/c2ncc(C)s2)C3C)CC1` (mixture of isomers) [Compound A29], the 50% degradation concentration (DC50) at BRD9 [1] and at BRD9 [2] (setting [6]) was 1.25 to 10 nM throughout. For the same compound, the Dmax at 1 µM on BRD9 [2] (setting [4]) lay in the range of 40 to 70%; at BRD9 [2] (setting [5]) it was 40 to 70%; on BRD7 it was 25 to 40%. Also, the Dmax at BRD4 was less than 25%.
Regarding `COc1cc(-c2cc(C)c(=O)n(C)c2)cc(OC)c1CN1CCN(Cc2cccc3c2CCN(C(=O)/C(C#N)=C/c2cccc(Br)n2)C3C)CC1` (mixture of isomers) [Compound A60], the DC50 on BRD9 [1] is less than 1.25 nM; at BRD9 [2] (setting [6]), less than 1.25 nM; on BRD4 it was 25 to 1000 nM. Moreover, the maximal degradation (Dmax) at 1 µM on BRD9 [2] (setting [4]) is 40 to 70%; on BRD9 [2] (setting [5]), 40 to 70%; on BRD7, less than 25%. Besides, the Dmax at BRD4 was in the range of 40 to 70%.
For `COc1cc(-c2cc(C)c(=O)n(C)c2)cc(OC)c1CN1CCN(Cc2cccc3c2CCN(C(=O)/C(C#N)=C/C2(F)CC2)C3C)CC1` (mixture of isomers) [Compound A61, (E/Z)-2-(5-((4-(4-(1,5-dimethyl-6-oxo-1,6-dihydropyridin-3-yl)-2,6-dimethoxybenzyl)piperazin-1-yl)methyl)-1-methyl-1,2,3,4-tetrahydroisoquinoline-2-carbonyl)-3-(1-fluorocyclopropyl) acrylonitrile], the DC50 is less than 1.25 nM at BRD9 [1], less than 1.25 nM at BRD9 [2] (setting [6]) and 25 to 1000 nM on BRD4. The figures for the maximal degradation (Dmax) at 1 µM on BRD9 [2] (setting [4]), on BRD9 [2] (setting [5]) and on BRD7 were more than 75%, more than 75% and less than 25%, respectively. The compound further gave a maximal degradation (Dmax) on BRD4 of 40 to 70%.
Turning to `COc1cc(-c2cn(C)c(=O)c(C)c2C)cc(OC)c1CN1CCN(C(=O)[C@@H]2CN(C(=O)/C(C#N)=C/c3nccs3)C[C@H]2c2cccc(C)c2)CC1` [Compound B213], the Dmax on BRD9 [2] (Table 4, BRD9 degradation, determined according to Assay Protocol 1, read-out: Dmax^1) lay within 30 to 50%; at BRD9 [3] (MV4-11, Table 4, determined according to Assay Protocol 2, read-out: Dmax^2), 50 to 70%. Moreover, the DC50 on BRD9 [3] (Table 4, determined according to Assay Protocol 2, read-out: DC50^2) was more than 200 nM.
As to `COc1cc(-c2cn(C)c(=O)c(C)c2C)cc(OC)c1CN1CCN(Cc2cccc3c2CCN(C(=O)/C(C#N)=C/C(C)(C)C)C3(C)C)C2(CC2)C1` [Compound C9, (E/Z)-2-(5-((7-(2,6-dimethoxy-4-(1,4,5-trimethyl-6-oxo-1,6-dihydropyridin-3-yl)benzyl)-4,7-diazaspiro[2.5]octan-4-yl)methyl)-1,1-dimethyl-1,2,3,4-tetrahydroisoquinoline-2-carbonyl)-4,4-dimethylpent-2-enenitrile], the half-maximal degradation concentration (DC50) on BRD9 [2] (Assay protocol 1, BRD9 degradation, read-out: DC50) fell in the range of 25 to 1000 nM; on BRD9 [3] (Assay protocol 2, read-out: DC50) it was 25 to 1000 nM. In addition, the Dmax on BRD9 [2] (Assay protocol 1, BRD9 degradation, read-out: Dmax) lay within 70 to 75%; at BRD9 [3] (MV4-11, Assay protocol 2, read-out: Dmax) it was 40 to 70%.
